Results as given in patent US20040186098A1 (Amgen Inc., priority 1997, published 2004).

Legend:
[1] = tested on: hair cells in rat organ of Corti explant; settings: Compound I 0.05 pM, pretreatment at plating, cisplatin exposure day 2 to day 4; untreated 17%
[2] = tested on: outer hair cells (OHC); assay: Intramiddle ear neomycin-induced ototoxicity, compound given into the middle ear, outer hair cell loss; type: in vivo, guinea pig; settings: for hair cells (protected) after neomycin: 5 mg neomycin, 14 days after second surgery
Description: Twenty guinea pigs used in this study were divided into two groups: 10 animals received 10 ng and 10 received 1 ng of the sensorineurotrophic compound.
Sensorineurotrophic compound stock A: A stock solution of sensorineurotrophic compound at 1 mg/10 ml in 100% ethanol was prepared and then diluted and mixed in Intralipid at 10 ng/100 μl.
Sensorineurotrophic compound stock B: A stock solution of sensorineurotrophic compound at 1 mg/100 ml in 100% ethanol was prepared and then diluted and mixed in 20% Intralipid at 1 ng/100 μl.
Animals were anesthetized with an intramuscular injection of a mixture of ketamine (80 mg/kg) and xylazine (4 mg/kg). Through a post-auricular incision, the right bulla was identified. A hole was drilled to open the middle ear cavity (care was taken not to injure the tympanic annulus or ossicles). A piece of gelfoam (˜2 mm^3) soaked with the sensorineurotrophic compound solution was inserted into the round window niche. The remaining sensorineurotrophic compound solution (˜100 μl) then was injected into the middle ear cavity. In the 10 ng dose group, 100 μl of sensorineurotrophic compound stock A was administered; and in the 1 ng dose group, 100 μl of sensorineurotrophic compound stock B was administered to the middle ear cavity. The hole was covered with a piece of clear plastic sheet which was stuck on the skull with a superglue. The incision was closed with clips. The same procedure was performed at the left bulla, but 100 μl of vehicle solution instead of sensorineurotrophic compound solution was administered. The animals were maintained in the prone position until they woke up to ensure filling of the middle ear cavity.
After two days, the animals received a second middle ear administration of sensorineurotrophic compound or vehicle together with neomycin. Solutions were prepared for the two groups of animals as follows:
Solution A: Neomycin was dissolved in sensorineurotrophic compound stock A described above. The final concentration of neomycin was 5 mg and the sensorineurotrophic compound concentration was 10 ng in a 100 μl vehicle solution.
Solution B: Neomycin was dissolved in sensorineurotrophic compound stock B described above. The final concentration of neomycin was 5 mg and the concentration of sensorineurotrophic compound was 1 ng in a 100 μl vehicle solution.
Solution C: Neomycin was dissolved in 20% Intralipid to a final concentration of 5 mg in 100 μl vehicle.
The plastic cover sheet on the bulla window was removed and the middle ear cavity was exposed. The old sensorineurotrophic compound or vehicle was sucked off and the old gelfoam was removed from the round window niche. A piece of gelfoam with fresh stock solution containing sensorineurotrophic compound and neomycin was administered to the round window niche, and the remaining solution (˜100 μl, solution A for the 10 ng dose group and solution B for the 1 ng dose group, respectively) was injected into the middle ear cavity of the right bulla.
Solution C (100 μl) was administered to the left ear for both groups in the same way.
Fourteen days after the second surgery, animals were perfused transcardially with a PBS flush followed by a fixative of 4% paraformaldehyde in 0.1M PBS. Immediately following the perfusion, the temporal bone was removed from the head. The bulla was opened and the cochlea was exposed. The apex was opened and the membrane of the round and oval windows was punched. The fixative solution was gently infused into the perilymphatic space through the apex hole and then allowed to flow out from windows. Then the cochleae were post-fixed in the same fixative solution for at least one day.
To identify and count hair cells in the organ of Corti, a direct immunostaining method was used to label the actin present naturally in the stereocilia bundles of the hair cells. The cochlea was dissected and the perilymphatic space was fully exposed. […]

## CCC(C)(C)C(=O)C(=O)N1CCC[C@H]1C(=O)OCCCc1cccnc1 [Compound I]
[1]
  surviving hair cells: 41.4%
[2]; 1 ng in the middle ear
  hair cells (protected) after neomycin: ~70%
[2]; 1 ng intramiddle ear, turn-1, n = 7
  Neomycin-induced OHC Loss (%), Right (Treated), mean ± SEM: 8.85 ± 1.47%
[2]; 1 ng intramiddle ear, turn-2, n = 7
  Neomycin-induced OHC Loss (%), Right (Treated), mean ± SEM: 4.01 ± 0.53%
[2]; 1 ng intramiddle ear, turn-3, n = 7
  Neomycin-induced OHC Loss (%), Right (Treated), mean ± SEM: 0.92 ± 0.10%
[2]; 1 ng intramiddle ear, turn-4, n = 7
  Neomycin-induced OHC Loss (%), Right (Treated), mean ± SEM: 1.67 ± 1.25%
[2]; 1 ng intramiddle ear, whole cochlea, n = 7
  Neomycin-induced OHC Loss (%), Right (Treated), mean ± SEM: 3.86 ± 0.37%
[2]; 10 ng in the middle ear
  hair cells (protected) after neomycin: around 75%
[2]; 10 ng intramiddle ear, turn-1, n = 9
  Neomycin-induced OHC Loss (%), Right (Treated), mean ± SEM: 15.47 ± 6.05%
[2]; 10 ng intramiddle ear, turn-2, n = 9
  Neomycin-induced OHC Loss (%), Right (Treated), mean ± SEM: 13.93 ± 10.75%
[2]; 10 ng intramiddle ear, turn-3, n = 9
  Neomycin-induced OHC Loss (%), Right (Treated), mean ± SEM: 11.64 ± 10.85%
[2]; 10 ng intramiddle ear, turn-4, n = 9
  Neomycin-induced OHC Loss (%), Right (Treated), mean ± SEM: 4.69 ± 2.85%
[2]; 10 ng intramiddle ear, whole cochlea, n = 9
  Neomycin-induced OHC Loss (%), Right (Treated), mean ± SEM: 11.44 ± 7.27%
[2]; 10 ng or 1 ng in the middle ear, neomycin
  protection of hair cells against ototoxicity, in words: protect completely hair cells against ototoxicity
[2]; all animals at 1 ng, all but one at 10 ng, neomycin and vehicle: almost complete loss
  loss of hair cells, in words (FIGS. 4A and 4B): very minimal loss of hair cells
